Patent US20140148498A1, “METHODS AND COMPOSITIONS FOR THE TREATMENT OF MARFAN SYNDROME AND ASSOCIATED DISORDERS” (THE JOHNS HOPKINS UNIVERSITY, priority 2011, published 2014)
Entries after “also recorded” stand apart in the source; their conditions may differ.

Key:
Fbn1^C1039G/+ mice [1] = test: Aortic root growth by echocardiography, 7 months of treatment (Examples 3-5); type: in vivo; conditions: for Final absolute aortic root diameter: 7 months of treatment; for Aortic root growth over 7 months of treatment: versus placebo, drug in drinking water from 8 weeks of age
Method: A head-to-head comparison of ACEi versus ARBs was performed. Fbn1^C1039G/+ mice and WT littermates were treated with hemodynamically equivalent doses (FIG. 8) of either the ACEi enalapril (10 to 15 mg/kg of body weight per day) or the ARB losartan (40 to 60 mg/kg per day) (R. D. Patten et al., Clin. Sci 104, 109 (2003)), beginning at 8 weeks of age, and were assessed with serial echocardiograms. […] It is noteworthy that losartan reduced aortic root growth in Fbn1^C1039G/+ mice, but had no effect in WT littermates (P=0.27). […] Whether AT2 signaling is needed to achieve losartan's full therapeutic benefit was assessed. AT2KO:Fbn1^C1039G/+ mice were treated with losartan from 8 weeks of age and followed by serial echocardiography until they were killed at 9 months of age (FIG. 2C).
(§1) All mice were cared for under strict compliance with the Animal Care and Use Committee of the Johns Hopkins University School of Medicine. The Fbn1^C1039G/+ and AT2KO lines were maintained n a pure C57BL/6 background (backcrossed for greater than 9 generations), allowing for valid comparisons. In order to further accommodate the potential for temporal- or background-specified variation, all comparisons were made between contemporary littermates when possible. The AT21C0 mice were obtained as a generous gift from Dr. Inagami (T. Ichiki et al., Nature 377, 748 (1995)). The Agtr2 gene resides on the X chromosome and therefore we used either male mice carrying the mutated allele (who are hemizygous) or homozygous females, both of which have been previously shown to be functionally null for the AT2 receptor (T. Ichiki et al., Nature 377, 748 (1995)). Mice were sacrificed with an inhalation overdose of halothane (Sigma-Aldrich, St. Louis). Mice underwent immediate laparotomy, descending abdominal aortic transection, and PBS (pH 7.4) was infused through the right and left ventricles to flush out the blood. Mice that were analyzed for Western Blot analysis had their proximal ascending aortas (root to right brachiocephalic trunk) immediately dissected out, flash frozen in liquid nitrogen and stored at −80d until further processing. Mice that were analyzed for aortic histology had latex injected under low pressure into the left ventricular apex until it was visible in the descending abdominal aorta. Mice that were analyzed for lung histology had their trachea intubated with a 20-gauge blunted needle, and 0.5% agar was infused under a low and constant pressure to gradually inflate the lungs. The trachea was then tied-off using vicryl and the needle was removed. Mice were fixed for 24 hours in 10% buffered formalin, after which the heart, aorta and lungs were removed and stored in 70% ethanol.
(§2) Mice were started on medication at 8 weeks of age and continued for 7 months. Losartan was dissolved in drinking water and filtered to reach a concentration of 0.6 g/L, giving an estimated daily dose of 40-60 mg/kg/day. Enalapril was dissolved in drinking water and filtered to reach a final concentration of 0.15 g/L, giving an estimated daily dose of 10-15 mg/kg/day. […] Spironolactone was dissolved in drinking water and filtered to give an estimated dose of 20 mg/kg/day, a dose previously shown to have in-vivo phenotypic benefit in cardiovascular disease states (S. Sakurabayashi-Kitade et al., Atherosclerosis 206, 54 (2009)). Placebo-treated animals received regular drinking water. Blood pressures were analyzed by taking 20 tail cuff blood pressures per day over 5 days in each mouse to habituate the mice to the tail cuff pressure system, and the blood pressures obtained on the last day were averaged. At least 4 mice for each treatment group were analyzed.
Nair hair removal cream was used on all mice the day prior to echocardiograms. All echocardiograms were performed on awake, unsedated mice using the Visualsonics Vevo 660 V1.3.6 imaging system and a 30 MHz transducer. Mice were imaged at baseline, 1 month after treatment and then every two months until the time of sacrifice. […]

WT mice = test: Aortic root growth by echocardiography, WT mice (Examples 6-8); type: in vivo; conditions: 1 mg/kg per day in drinking water, 4 months, FIG. 18
Description: (§3) All mice were cared for under strict compliance with the Animal Care and Use Committee of the Johns Hopkins University School of Medicine. The Smad4 haploinsufficient mice were a generous gift from Dr. Chuxia Deng (NIH/NIDDK, Bethesda). The Fbn1^C1039G/+ line was maintained on a C57BL/6 background, allowing for valid comparisons. In order to further accommodate the potential for temporal- or background-specific variation in genetic or pharmacological manipulation experiments, all comparisons were made between contemporary littermates. Mice were checked daily for death and all mice found dead were immediately necropsied to assess for evidence of aortic dissection. Mice were killed with an inhalation overdose of halothane (Sigma-Aldrich, St. Louis). Mice underwent immediate laparotomy, descending abdominal aortic transection, and PBS (pH 7.4) infusion through the left ventricle to flush out the blood. For Western blot analysis, the proximal ascending aorta (root to right brachiocephalic trunk) was removed, flash frozen in liquid nitrogen and stored at −80° C. Following PBS infusion, mice analyzed for aortic histology had latex injected under low pressure into the left ventricular apex until it was visible in the descending abdominal aorta. The mice were then fixed for 24 hours in 10% buffered formalin, after which the heart and aorta were removed and stored in 70% ethanol.
Mouse monoclonal TGFβNAb (1d11; R&D Systems, Minneapolis) was reconstituted in PBS and administered via intraperitoneal injection 3 times a week at a dose of 5 mg/kg. Treatment was initiated at 1 month of age and continued for 2 months. IgG (Zymed Laboratories Inc, San Francisco) was reconstituted in PBS, and administered at a dose of 10 mg/kg as a control. […]
Nair hair removal cream was used on all mice the day prior to echocardiography. […] Three separate measurements of the maximal internal systolic dimension at the sinus of Valsalva and proximal ascending aorta were made, and a mean was calculated. […]

Fbn1^C1039G/+ mice [2] = test: Aortic root and ascending aortic growth by echocardiography (Examples 6-8); type: in vivo
Description: as §3
Mouse monoclonal TGFβNAb (1d11; R&D Systems, Minneapolis) was reconstituted in PBS and administered via intraperitoneal injection 3 times a week at a dose of 5 mg/kg. Treatment was initiated at 1 month of age and continued for 2 months. IgG (Zymed Laboratories Inc, San Francisco) was reconstituted in PBS, and administered at a dose of 10 mg/kg as a control. SP600125 (Sigma-Aldrich, St. Louis) was reconstituted in 10% DMSO dissolved in PBS, and administered twice daily by intraperitoneal injection, at a dose of 30 mg/kg. Treatment was initiated at 1 month of age and continued for 2 months. 10% DMSO dissolved in PBS was administered as a control. RDEA119 was reconstituted in 10% 2-hydroxypropyl-beta-cyclodextrin (Sigma-Aldrich, St. Louis) dissolved in PBS, and administered twice daily by oral gavage at a dose of 25 mg/kg. Treatment was initiated at 2 months of age and continued for 2 months. 10% 2-hydroxypropyl-beta-cyclodextrin dissolved in PBS was administered as a control. Fasudil was dissolved in drinking water, and administered at a dose of 1 mg/kg body weight per day. Treatment was initiated at 2 months of age and continued for 4 months. Drinking water was administered as a control.
Nair hair removal cream was used on all mice the day prior to echocardiography. All echocardiograms were performed on awake, unsedated mice using the Visualsonics Vevo 660 V1.3.6 imaging system and a 30 MHz transducer. The aorta was imaged using a parasternal long axis view. Three separate measurements of the maximal internal systolic dimension at the sinus of Valsalva and proximal ascending aorta were made, and a mean was calculated. All imaging and measurements were performed by a cardiologist who was blinded to genotype and treatment arm. In the TGFβNAb and SP600125 trials, mice were imaged at 1 month (baseline) and 3 months of age, after which they were killed. In the RDEA119 trial, mice were imaged at 2 months (baseline) and 4 months of age, after which they were killed. In the fasudil trial, mice were imaged at 2 months (baseline) and 6 months of age, after which they were killed. Smad4 haploinsufficient mice were imaged at 1 month, and then every 2 months thereafter, until death or sacrifice.

Fbn1^C1039G/+ mice [3] = test: Aortic wall architecture score (VVG staining); type: in vivo
Method: Latex-infused ascending aortas were transected just above the level of the aortic valve, and 2-3 mm transverse sections were mounted in 4% agar prior to paraffin fixation. Five micrometer aortic sections underwent Verhoeff-van Giesen (VVG) staining and were imaged at 40× magnification, using a Nikon Eclipse E400 microscope. Wall thickness of the aortic media was measured by a single blinded observer at 16 different locations around the most proximal ascending aortic ring and averaged. Wall architecture of 4 representative sections for each mouse was assessed by the same 3 blinded observers and graded on an arbitrary scale of 1 (indicating no breaks in the elastic fiber) to 5 (indicating diffuse fragmentation), and the results were averaged. Elastic fiber content was quantified in four separate representative images of each section of the most proximal ascending aorta by a single blinded observer, using NIS Elements Advanced Research (Nikon, Japan). The aortic media and the elastic fibers were individually outlined and their areas calculated. The respective areas were averaged from all the images of a given aortic section and the ratio of elastic fiber content to total aortic media was determined. Individual lobes of the lungs were mounted in 4% agar and fixed in paraffin. Five micrometer lung sections underwent hematoxylin and eosin staining and were imaged at 10× magnification, using a Nikon Eclipse E400 microscope. Five fields were analyzed for each lobe of each lung by a single blinded observer, and a mean linear intercept was calculated using a previously described method (J. P. Habashi et al., Science 312, 117 (2006); and E. R. Neptune et al., Nat. Genet. 33, 407 (2003)).

Fbn1^C1039G/+ mice [4] = test: Systolic blood pressure by tail cuff; type: in vivo; conditions: compared to placebo-treated animals, FIG. 8
Method: as §2

Smad2 = test: Western blot of aortic root and proximal ascending aorta: Smad2 activation (Examples 4-5); type: in vivo, mice; conditions: Fbn1^C1039G/+ mice, FIG. 10B
Description: as §1
Mouse aortic root and ascending aortas (aortic root excluding the aortic valve to origin of right brachiocephalic trunk) were harvested, snap-frozen in liquid nitrogen and stored at −80° C. until processed. Protein was extracted using the reagents and protocol from a Total Protein Extraction Kit containing protease inhibitor and Protein Phosphatase Inhibitor Cocktail (Millipore, MA). Aortas were homogenized using a pellet pestle motor (Kimble-Kontes, NJ) as per the extraction kit protocol. […] Equal protein loading of samples was determined by a protein assay (BioRad, CA), and confirmed by probing with antibodies against β-Actin or GAPDH (Sigma, Mo.). […] Blots were then washed in PBS-T, developed using SuperSignalWest HRP substrate (Pierce Scientific, IL), exposed to BioMax Scientific Imaging Film (Sigma, Mo.) and quantified using Imaged analysis software (NIH, MD).

ERK1/2 = test: Western blot of aortic root and proximal ascending aorta: ERK1/2 activation (Examples 4-5); type: in vivo, mice; conditions: Fbn1^C1039G/+ mice, FIG. 10B
Description: as §1, with “The trachea was then tied-off using vicryl and the needle was removed. Mice were fixed for 24 hours in 10% buffered formalin, after which the heart, aorta and lungs were removed and stored in 70% ethanol.” left out
(§4) Mouse aortic root and ascending aortas (aortic root excluding the aortic valve to origin of right brachiocephalic trunk) were harvested, snap-frozen in liquid nitrogen and stored at −80° C. until processed. […] Equal protein loading of samples was determined by a protein assay (BioRad, CA), and confirmed by probing with antibodies against β-Actin or GAPDH (Sigma, Mo.). […]

p38 = test: Western blot of proximal ascending aorta: p38 activation (Examples 4-5); type: in vivo, mice; conditions: Fbn1^C1039G/+ mice, FIG. 13
Description: as §1, with “The trachea was then tied-off using vicryl and the needle was removed. Mice were fixed for 24 hours in 10% buffered formalin, after which the heart, aorta and lungs were removed and stored in 70% ethanol.” left out
as §4

JNK1 = test: Western blot of proximal ascending aorta: JNK1 activation (Examples 4-5); type: in vivo, mice; conditions: Fbn1^C1039G/+ mice, FIG. 13
Description: as §1, with “The trachea was then tied-off using vicryl and the needle was removed. Mice were fixed for 24 hours in 10% buffered formalin, after which the heart, aorta and lungs were removed and stored in 70% ethanol.” left out
as §4

| Structure (SMILES) | Final absolute aortic root diameter (Fbn1^C1039G/+ mice [1]; FIG. 15, mean +/- 2 SEM) | Aortic root growth over 7 months of treatment (Fbn1^C1039G/+ mice [1]) | Absolute final aortic root diameter (WT mice) | Absolute final aortic root diameter (Fbn1^C1039G/+ mice [2]; 1 mg/kg per day in drinking water, 4 months, FIG. 18) | Aortic root growth over 4 months (Fbn1^C1039G/+ mice [2]; fasudil trial) | Aortic wall architecture score (Fbn1^C1039G/+ mice [3]; FIG. 9) | Aortic wall architecture score (Fbn1^C1039G/+ mice [3]; FIG. 9, listed as Enalapril) | Final absolute aortic root diameter (Fbn1^C1039G/+ mice [1]; FIG. 2B, mean +/- 2 SEM) | Aortic root growth over 7 months of treatment (Fbn1^C1039G/+ mice [1]; listed as Enalapril) | Systolic blood pressure (Fbn1^C1039G/+ mice [4]) | Smad2 activation (Smad2) | Smad2 activation (Smad2; listed as Enalapril) | ERK1/2 activation (ERK1/2) | p38 activation (p38) | JNK1 activation (JNK1) |
| --- | --- | --- | --- | --- | --- | --- | --- | --- | --- | --- | --- | --- | --- | --- | --- |
| CC(=O)S[C@@H]1CC2=CC(=O)CC[C@]2(C)[C@H]2CC[C@@]3(C)[C@@H](CC[C@@]34CCC(=O)O4)[C@H]12 [spironolactone] | 2.19+/−0.19 | no significant difference; also recorded: no significant inhibition of aortic root growth |  |  |  |  |  |  |  |  |  |  |  |  |  |
| O=S(=O)(c1cccc2cnccc12)N1CCCNCC1 [fasudil] |  |  | 1.73+/−0.05 | 2.40+/−0.16 | lack of rescue of aortic root growth; also recorded: failed to attenuate aortic root growth |  |  |  |  |  |  |  |  |  |  |
| CCOC(=O)[C@H](CCc1ccccc1)N[C@@H](C)C(=O)N1CCC[C@H]1C(=O)O [enalapril] |  | marginal (P=0.05) decrease in growth |  |  |  | no more effective than placebo | no more beneficial than placebo | 2.18+/−0.18 mm | only marginally better than placebo treatment | equal reduction in systolic blood pressure | decreased | significantly more than losartan | no more effective than placebo; also recorded: failed to reduce ERK1/2 activation | do not affect p38 activation; also recorded: neither had any effect | small reduction in JNK1 activation; also recorded: modest reduction in JNK1 activation |
